12 molecules from US20080311076A1, “Morpholinylanilinoquinazoline Derivatives For Use As Antiviral Agents” (ARROW THERAPEUTICS LIMITED, priority 2004, published 2008) can be followed below.

For orientation: IC50 means the concentration that inhibits the measured activity by half.

For this assay, the system named is HCV replicon cells Huh 9B. Kind of assay: HCV replicon assay (luciferase) in Huh 9B replicon cells. It counts as cell-based. Conditions: Hepatitis C virus; concentration reducing replicon level (luciferase activity) by 50% vs untreated cell control; 72 h incubation. The procedure: HCV replicon cells Huh 9B (ReBlikon), containing the firefly luciferase—ubiquitin—neomycin phosphotransferase fusion protein and EMCV-IRES driven HCV polyprotein with cell culture adaptive mutations.
Cells were cultured at 37° C. in a 5% CO2 environment and split twice a week on seeding at 2×10E6 cells/flask on day 1 and 1×10E6 3 days later. Some 0.25 mg/ml G418 was added to the culture medium (125 ul per 25 ml) but not the assay medium.
The culture medium consisted of DMEM with […] glucose and glutamax (Gibco 61965-026) supplemented with 1× non-essential amino acids, penicillin (100 IU/ml)/streptomycin (100 μg/ml), FCS (10%, 50 ml) and 1 mg/ml G418 (Invitrogen cat no 10131-027) & 10% foetal calf serum.
A flask of cells was trypsinised and a cell count carried out. Cells were diluted to 100,000 cells/ml and 100 μl of this used to seed one opaque white 96-well plate (for the replicon assay) and one flat-bottomed clear plate (for the tox assay) for every seven compounds to be tested for IC50. Wells G12 and H12 were left empty in the clear plate as the blank. Plates were then incubated at 37° C. in a 5% CO2 environment for 24 h.
On the following day compound dilutions are made up in medium at twice their desired final concentration in a clear round bottomed plate. All dilutions have a final DMSO concentration of 1%.
Once the dilution plate had been made up, controls and compounds were transferred to the assay plate (containing the cells) at 100 μl/well in duplicate plates.
Exception: in the white (replicon) plate, no compound was added to wells A1 and A2 and 100 μl of 1% DMSO was added to these instead. In the clear (Tox) plate, wells E12 & F12 only contained the DMSO control. Plates were then incubated at 37° C. with 5% CO2 for 72 h.
At the end of the incubation time, the cells in the white plate were harvested by washing with 200 μl/well of warm (37° C.) PBS and lysed with 20 μl cell culture lysis buffer (Promega). After 5 min incubation @ RT, luciferin solution was added to the luciferase assay buffer (LARB at 200 μl per 10 ml LARB. The M injector of the microplate luminometer (Lmax, Molecular Devices) was primed with […] injections. Plate were inserted into the luminometer and 100 μl luciferase assay reagent was added by the injector on the luminometer. The signal was measured using a 1 second delay followed by a 4 second measurement programme. The IC50, the concentration of the drug required for reducing the replicon level by 50% in relation to the untreated cell control value, can be calculated from the plot of the percentage reduction of the luciferase activity vs. drug concentration.
The molecule `FC(F)(F)c1cc(N2CCOCC2)ccc1Nc1ncnc2ccc(-c3cccs3)cc12` [Example 40, (4-Morpholin-4-yl-2-trifluoromethyl-phenyl)-(6-thiophen-2-yl-quinazolin-4-yl)-amine] yielded an IC50 below 1 µM.

The molecule `COc1cc(Nc2ncnc3ccc(I)cc23)ccc1N1CCOCC1` [Example 41, (6-Iodo-quinazolin-4-yl)-(3-methoxy-4-morpholin-4-yl-phenyl)-amine] displayed an IC50 below 5 µM.

With `COc1cc(Nc2ncnc3ccc(-c4cccs4)cc23)ccc1N1CCOCC1` [Example 42, (3-Methoxy-4-morpholin-4-yl-phenyl)-(6-thiophen-2-yl-quinazolin-4-yl)-amine], the IC50 was below 1 µM.

The molecule `Cc1cc(N2CCOCC2)ccc1Nc1ncnc2ccc(-c3cccs3)cc12` [Example 43, (2-Methyl-4-morpholin-4-yl-phenyl)-(6-thiophen-2-yl-quinazolin-4-yl)-amine] returned an IC50 below 1 µM.

`Cc1cc(Nc2ncnc3ccc(-c4cccs4)cc23)ccc1N1CCOCC1` [Example 44, (3-Methyl-4-morpholin-4-yl-phenyl)-(6-thiophen-2-yl-quinazolin-4-yl)-amine] came in with an IC50 below 1 µM.

In turn, `CCN(c1ccc(N2CCOCC2)cc1)c1ncnc2ccc(-c3cccs3)cc12` [Example 45, Ethyl-(4-morpholin-4-yl-phenyl)-(6-thiophen-2-yl-quinazolin-4-yl)-amine] gave an IC50 below 5 µM.

As to `CN(c1ccc(N2CCOCC2)cc1)c1ncnc2ccc(I)cc12` [Example 46, (6-Iodo-quinazolin-4-yl)-methyl-(4-morpholin-4-yl-phenyl)amine], the IC50 is below 1 µM.

Take `CC(C)CCN(c1ccc(N2CCOCC2)cc1)c1ncnc2ccc(I)cc12` [Example 47, (6-Iodo-quinazolin-4-yl)-(3-methyl-butyl)-(4-morpholin-4-yl-phenyl)-amine]: the IC50 was below 5 µM.

As for `CC(C)N(c1ccc(N2CCOCC2)cc1)c1ncnc2ccc(-c3cccs3)cc12` [Example 48, Isopropyl-(4-morpholin-4-yl-phenyl)-(6-thiophen-2-yl-quinazolin-4-yl)-amine], the IC50 was below 5 µM.

In turn, `CC(C)CCN(c1ccc(N2CCOCC2)cc1)c1ncnc2ccc(-c3cccs3)cc12` [Example 49, (3-Methyl-butyl)-(4-morpholin-4-yl-phenyl)-(6-thiophen-2-yl-quinazolin-4-yl)-amine] had an IC50 below 5 µM.

`c1ccc(COc2ccccc2-c2ccc3ncnc(Nc4ccc(N5CCOCC5)cc4)c3c2)cc1` [Example 50, [6-(2-Benzyloxy-phenyl)-quinazolin-4-yl]-(4-morpholin-4-yl-phenyl)-amine] displayed an IC50 below 5 µM.

Molecule `c1ccc(COc2ccc(-c3ccc4ncnc(Nc5ccc(N6CCOCC6)cc5)c4c3)cc2)cc1` [Example 51, [6-(4-Benzyloxy-phenyl)-quinazolin-4-yl]-(4-morpholin-4-yl-phenyl)-amine] yielded an IC50 below 5 µM.
